System: Endogenous Huntingtin Protein
Assay: Endogenous Huntingtin Protein Assay (ELISA-based MSD electrochemiluminescence)
Type: cell-based
Method in brief: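 MSD electrochemiluminescence sandwich ELISA: capture with MW1 (expanded polyQ) or MAB2166 at 1 µg/mL, samples incubated overnight at 4 °C. Detection by rabbit mAb #56565 then SULFO-TAG anti-rabbit antibody, each 0.25 µg/mL for 1 h at room temperature, read in buffer T on SI 6000 imager.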

[1] = Table 2, MSD plates coated with MW1 (expanded polyglutamine) or MAB2166 capture antibody, "inactive" = result above the detection limit of the assay

Row | Structure (SMILES) | IC50 [1] | IC50 (Table 3, selected compounds from WO/2019/191229 A1, same MSD assay)
1 | CC[C@H]1CN(c2ncc(-c3ccc(-c4ccnc(OC)c4)cc3O)nn2)C[C@@H](C)N1 (single isomer, unassigned) [Cpd 266, 2-{3-[(3S,5R)-3-ethyl-5-methylpiperazin-1-yl]-1,2,4-triazin-6-yl}-5-(2-methoxypyridin-4-yl)phenol or 2-{3-[(3R,5S)-3-ethyl-5-methylpiperazin-1-yl]-1,2,4-triazin-6-yl}-5-(2-methoxypyridin-4-yl)phenol] | 19.4 nM | 
2 | Oc1cc(-c2cn[nH]c2)ccc1-c1cnc(N2CCNC(C3(O)CC3)C2)nn1 (centres unmarked) [Cpd 6, 2-{3-[3-(1-hydroxycyclopropyl)piperazin-1-yl]-1,2,4-triazin-6-yl}-5-(1H-pyrazol-4-yl)phenol] | 6.7 nM | 
3 | Cn1nc2cc(-c3ccc(-c4cnc(N5CCN[C@@H](C6(C)CC6)C5)nn4)c(O)c3)cnc2n1 [Cpd 241, 2-{3-[(3S)-3-(1-methylcyclopropyl)piperazin-1-yl]-1,2,4-triazin-6-yl}-5-(2-methyl-2H-[1,2,3]triazolo[4,5-b]pyridin-6-yl)phenol] | 5.7 nM | 
4 | [2H]C([2H])([2H])n1cc(-c2ccc(-c3cnc(N4C[C@@H](C)N[C@@H](C)C4)nn3)c(O)c2)cn1 [Cpd 49, 2-{3-[(3R,5S)-3,5-dimethylpiperazin-1-yl]-1,2,4-triazin-6-yl}-5-[1-(^2H3)methyl-1H-pyrazol-4-yl]phenol] | 256 nM | 
5 | COC[C@H]1CN(c2ncc(-c3ccc(-c4cn[nH]c4)cc3O)nn2)CCN1 [Cpd 53, 2-{3-[(3R)-3-(methoxymethyl)piperazin-1-yl]-1,2,4-triazin-6-yl}-5-(1H-pyrazol-4-yl)phenol] | 435 nM | 
6 | CC(C)[C@H]1CN(c2ncc(-c3ccc(-c4nc(C#N)cs4)cc3O)nn2)CCN1 [Cpd 273, 2-(3-hydroxy-4-{3-[(3S)-3-(propan-2-yl)piperazin-1-yl]-1,2,4-triazin-6-yl}phenyl)-1,3-thiazole-4-carbonitrile] | 646 nM | 
7 | COc1cc(-c2ccc(-c3cnc(N4CCN[C@@H](C(C)C)C4)nn3)c(O)c2)nn2nc(C)nc12 [Cpd 70, 5-(8-methoxy-2-methyl[1,2,4]triazolo[1,5-b]pyridazin-6-yl)-2-{3-[(3S)-3-(propan-2-yl)piperazin-1-yl]-1,2,4-triazin-6-yl}phenol] | 3.8 nM | 
8 | CCC1CN(c2ncc(-c3ccc(-c4cc(F)c5nc(C)cn5c4)cc3O)nn2)CCN1 (centres unmarked) [Cpd 68, 2-[3-(3-ethylpiperazin-1-yl)-1,2,4-triazin-6-yl]-5-(8-fluoro-2-methylimidazo[1,2-a]pyridin-6-yl)phenol] | 2.2 nM | 
9 | C[C@@H]1CN(c2ncc(-c3ccc(-c4cn[nH]c4)cc3O)nn2)C[C@H](C2CCC2)N1 [Cpd 231, 2-{3-[(3S,5R)-3-cyclobutyl-5-methylpiperazin-1-yl]-1,2,4-triazin-6-yl}-5-(1H-pyrazol-4-yl)phenol] | 21.9 nM | 
10 | [2H]C([2H])([2H])Oc1cc(-c2ccc(-c3cnc(N4CCN(C)C(C(C)(C)O)C4)nn3)c(O)c2)ncn1 (centres unmarked) [Cpd 26, 2-{3-[3-(2-hydroxypropan-2-yl)-4-methylpiperazin-1-yl]-1,2,4-triazin-6-yl}-5-{6-[(^2H3)methyloxy]pyrimidin-4-yl}phenol] | 24.9 nM | 
11 | C[C@H]1CN(c2ncc(-c3ccc(-c4cn[nH]c4F)cc3O)nn2)C[C@@H](C2CC2)N1 [Cpd 215, 2-{3-[(3R,5S)-3-cyclopropyl-5-methylpiperazin-1-yl]-1,2,4-triazin-6-yl}-5-(5-fluoro-1H-pyrazol-4-yl)phenol] | 114 nM | 
12 | CC(C)[C@H]1CN(c2ncc(-c3ncc(-n4nccn4)cc3O)nn2)CCN1 [Cpd 175, 2-{3-[(3S)-3-(propan-2-yl)piperazin-1-yl]-1,2,4-triazin-6-yl}-5-(2H-1,2,3-triazol-2-yl)pyridin-3-ol] | 236 nM | 
13 | Cc1cn2cc(-c3ccc(-c4cnc(N5CCN(C)[C@H](C)C5)nn4)c(O)c3)cc(F)c2n1 [Cpd 107, 2-{3-[(3R)-3,4-dimethylpiperazin-1-yl]-1,2,4-triazin-6-yl}-5-(8-fluoro-2-methylimidazo[1,2-a]pyridin-6-yl)phenol] | 16.8 nM | 
14 | CC(C)[C@H]1CN(c2ncc(-c3ccc(-c4ncccn4)cc3O)nn2)CCN1 [Cpd 151, 2-{3-[(3S)-3-(propan-2-yl)piperazin-1-yl]-1,2,4-triazin-6-yl}-5-(pyrimidin-2-yl)phenol] | 204 nM | 
15 | Cc1cnsc1-c1ccc(-c2cnc(N3CCN[C@@H](C(C)C)C3)nn2)c(O)c1 [Cpd 253, 5-(4-methyl-1,2-thiazol-5-yl)-2-{3-[(3S)-3-(propan-2-yl)piperazin-1-yl]-1,2,4-triazin-6-yl}phenol] | 376 nM | 
16 | CC(C)[C@H]1CN(c2ncc(-c3ccc(-c4cnsc4)cc3O)nn2)CCN1 [Cpd 250, 2-{3-[(3S)-3-(propan-2-yl)piperazin-1-yl]-1,2,4-triazin-6-yl]-5-(1,2-thiazol-4-yl)phenol] | 140 nM | 
17 | Cc1nc2cnc(-c3ccc(-c4cnc(N5CCN[C@@H](C(C)C)C5)nn4)c(O)c3)cn2n1 [Cpd 91, 5-(2-methyl[1,2,4]triazolo[1,5-a]pyrazin-6-yl)-2-{3-[(3S)-3-(propan-2-yl)piperazin-1-yl]-1,2,4-triazin-6-yl}phenol] | 7.3 nM | 
18 | CC1CN(c2ncc(-c3ccc(-c4cnn(C)c4)cc3O)nn2)CC(C)N1 (centres unmarked) [WO/2019/191229 A1 Cpd 263, reference compound] |  | 352 nM

Row | Structure (SMILES) | IC50 [1] | IC50 (Table 3, selected compounds from WO/2019/191229 A1, same MSD assay)
19 | Oc1cc(-c2ccncc2F)ccc1-c1cnc(N2CCN[C@@H](C3CC3)C2)nn1 [Cpd 178, 2-{3-[(3S)-3-cyclopropylpiperazin-1-yl]-1,2,4-triazin-6-yl}-5-(3-fluoropyridin-4-yl)phenol] | 300 nM | 
20 | CC(C)[C@H]1CN(c2ncc(-c3ccc(-c4cnn5c4CCC5)cc3O)nn2)CCN1 [Cpd 278, 5-(5,6-dihydro-4H-pyrrolo[1,2-b]pyrazol-3-yl)-2-{3-[(3S)-3-(propan-2-yl)piperazin-1-yl]-1,2,4-triazin-6-yl}phenol] | 8.3 nM | 
21 | CCC(C)C1CN(c2ncc(-c3ccc(-c4cn[nH]c4)cc3O)nn2)CCN1 (centres unmarked) [Cpd 33, 2-{3-[3-(butan-2-yl)piperazin-1-yl]-1,2,4-triazin-6-yl}-5-(1H-pyrazol-4-yl)phenol] | 41.4 nM | 
22 | CC(C)[C@H]1CN(c2ncc(-c3ccc(-c4nnc(C5CC5)o4)cc3O)nn2)CCN1 [Cpd 199, 5-(5-cyclopropyl-1,3,4-oxadiazol-2-yl)-2-{3-[(3S)-3-(propan-2-yl)piperazin-1-yl]-1,2,4-triazin-6-yl}phenol] | 526 nM | 
23 | CC[C@H]1CN(c2ncc(-c3ccc(-c4cn[nH]c4)cc3O)nn2)C[C@@H](C)N1 (racemic) [Cpd 148, 2-{3-[rac-(3S,5R)-3-ethyl-5-methylpiperazin-1-yl]-1,2,4-triazin-6-yl}-5-(1H-pyrazol-4-yl)phenol] | 53.4 nM | 
24 | CC(C)(O)C1CN(c2ncc(-c3ccc(-c4c[nH]nc4F)cc3O)nn2)CCN1 (centres unmarked) [Cpd 4, 5-(3-fluoro-1H-pyrazol-4-yl)-2-{3-[3-(2-hydroxypropan-2-yl)piperazin-1-yl]-1,2,4-triazin-6-yl}phenol] | 4.5 nM | 
25 | Cc1nc2ccc(-c3ccc(-c4cnc(N5CCN[C@@H](C(C)C)C5)nn4)c(O)c3)cn2n1 [Cpd 85, 5-(2-methyl[1,2,4]triazolo[1,5-a]pyridin-6-yl)-2-{3-[(3S)-3-(propan-2-yl)piperazin-1-yl]-1,2,4-triazin-6-yl}phenol] | 6 nM | 
26 | CC(C)[C@H]1CN(c2ncc(-c3ccc(-c4cnn5cccnc45)cc3O)nn2)CCN1 [Cpd 243, 2-{3-[(3S)-3-(propan-2-yl)piperazin-1-yl]-1,2,4-triazin-6-yl}-5-(pyrazolo[1,5-a]pyrimidin-3-yl)phenol] | 218 nM | 
27 | C[C@@H]1CN(c2ncc(-c3ccc(-c4cn[nH]c4)cc3O)nn2)C[C@H](C(C)(C)C)N1 [Cpd 247, 2-{3-[(3S,5R)-3-tert-butyl-5-methylpiperazin-1-yl]-1,2,4-triazin-6-yl]-5-(1H-pyrazol-4-yl)phenol] | 201 nM | 
28 | [2H]C([2H])([2H])n1cc(-c2ccc(-c3cnc(N4C[C@@H](C)N(C)[C@@H](C)C4)nn3)c(O)c2)cn1 [Cpd 51, 5-[1-(^2H3)methyl-1H-pyrazol-4-yl]-2-{3-[(3R,5S)-3,4,5-trimethylpiperazin-1-yl]-1,2,4-triazin-6-yl}phenol] | 330 nM | 
29 | [2H]C([2H])([2H])Oc1cc(-c2ccc(-c3cnc(N4CCN[C@@H](C(C)(C)C)C4)nn3)c(O)c2)ncn1 [Cpd 17, 2-{3-[(3S)-3-tert-butylpiperazin-1-yl]-1,2,4-triazin-6-yl}-5-{6-[(^2H3)methyloxy]pyrimidin-4-yl}phenol] | 14.1 nM | 
30 | Oc1cc(-c2cn3ncnc3cn2)ccc1-c1cnc(N2CCN[C@@H](C3CC3)C2)nn1 [Cpd 130, 2-{3-[(3S)-3-cyclopropylpiperazin-1-yl]-1,2,4-triazin-6-yl}-5-([1,2,4]triazolo[1,5-a]pyrazin-6-yl)phenol] | 12 nM | 
31 | COc1cc(-c2ccc(-c3cnc(N4CCN[C@@H](C5CC5)C4)nn3)c(O)c2)ccn1 [Cpd 251, 2-{3-[(3S)-3-cyclopropylpiperazin-1-yl]-1,2,4-triazin-6-yl]-5-(2-methoxypyridin-4-yl)phenol] | 18.6 nM | 
32 | Cc1nc(-c2ccc(-c3cnc(N4CCN[C@@H](C5CC5)C4)nn3)c(O)c2)cs1 [Cpd 246, 2-{3-[(3S)-3-cyclopropylpiperazin-1-yl]-1,2,4-triazin-6-yl}-5-(2-methyl-1,3-thiazol-4-yl)phenol] | 28.4 nM | 
33 | Oc1cc(-c2cn[nH]c2)ccc1-c1cnc(N2CCN3CCCCC3C2)nn1 (centres unmarked) [Cpd 203, 2-[3-(octahydro-2H-pyrido[1,2-a]pyrazin-2-yl)-1,2,4-triazin-6-yl]-5-(1H-pyrazol-4-yl)phenol] | 42.5 nM | 
34 | Oc1cc(-c2cn[nH]c2)ccc1-c1cnc(N2CCNC(c3ccccc3)C2)nn1 (centres unmarked) [Cpd 61, 2-[3-(3-phenylpiperazin-1-yl)-1,2,4-triazin-6-yl]-5-(1H-pyrazol-4-yl)phenol] | 1440 nM | 
35 | CC1([C@H]2CN(c3ncc(-c4ccc(-c5cnn6c5CCC6)cc4O)nn3)CCN2)CC1 [Cpd 280, 5-(5,6-dihydro-4H-pyrrolo[1,2-b]pyrazol-3-yl)-2-{3-[(3S)-3-(1-methylcyclopropyl)piperazin-1-yl]-1,2,4-triazin-6-yl}phenol] | 4.5 nM | 

Reference: patent US20230234942A1, “COMPOUNDS FOR TREATING HUNTINGTON'S DISEASE” (PTC Therapeutics, Inc., priority 2020, published 2023)
